Reference: patent publication US6521593B1, “Methods for inhibiting brain tumor growth” (Childrens Hospital Los Angeles, priority 1999, dated 2003)

Experiments:
U87MG cells [1] = assay: Vitronectin migration (Boyden chamber), U87MG; type: cell-based, human; conditions: test substance 20 μg/ml, 4 hrs
Method: Migration: Transwell polycarbonate filters (8 μm pore size) were incubated for 30 min. at 37° C. with vitronectin in PBS (1 μg/ml on the upper side and 10 μg on the bottom side), blocked for 30 min. with 1% heat denatured BSA and washed with PBS. Test cells (5×10^5/well) were added in adhesion buffer containing the test substances indicated (20 μg/ml) and incubated for 4 hrs at 37° C. with the lower chamber containing adhesion buffer. Cells in the upper chamber were removed with a cotton swab and cells on the bottom part of the filter were fixed and stained with crystal violet and the number of migrated cells determined by counting.
To address whether αvβ3 and αvβ5 modulate migration on vitronectin, independent of adhestion, we tested the same cells on vitronectin-coated membranes in Boyden chambers while in the presence of blocking antibodies or cRGD. […] Since LM-609, in the absence of P1-F6, was incapable of blocking adhesion, this anti-migratory effect must be mediated through a distinct pathway which is independent of forces responsible for adhesion.

U87MG cells [2] = assay: Vitronectin adhesion, U87MG; type: cell-based, human; conditions: test substance 20 μg/ml
Method: Adhesion: Assay conditions were as previously described (15). Non-tissue culture treated wells incubated overnight at 4° C. with vitronectin (1-10 μg/ml PBS), washed and blocked for 30 min. with heat denatured 1% BSA in PBS, followed by washing with PBS. Control and test cells, pre-incubated at 37° C. with the test substance (20 μg/ml) in adhesion buffer for 30 min. were plated into wells (5×10^4 cells/well) and incubated for 1 hr at 37° C. After gentle washing of the wells with adhesion buffer, adhering cells were fixed and stained with crystal violet, the dye solubilized in methanol and the OD determined at […].
To determine if αvβ3 and αvβ5 regulate DAOY, U87MG and HBEC adhesion to vitronecin, the cells were plated in vitronectin-coated wells and allowed to adhere in the presence or absence of either blocking antibodies to αvβ3 (LM-609) and αvβ5 (P1-F6) or the cRGD peptide.

DAOY cells [3] = assay: Heterotopic (subcutaneous) tumor model, DAOY cells in nude mice
Method: Subcutaneous tumor growth: For subcutaneous tumor growth, the cells (10^6 mouse) were injected s.c. below the right shoulder pad immediately following intracerebral injection.
To further investigate this finding, we simultaneously injected the DAOY and U87MG cells intracranially and subcutaneously before initiating treatment with the peptides as outlined under the orthotopic model.

DAOY cells [4] = assay: Orthotopic brain tumor model, DAOY cells injected intracerebrally in nu/nu mice; conditions: for Tumor size (mm) Brain: nu/nu mice, 100 μg/mouse daily i.p. from day 7, 4 weeks total tumor growth
Method: (§2) Tumor cells (10^6/10 μl PBS) were injected intracerebrally at the coordinates mentioned. […] The animals were then sacrificed by CO2 anesthesia, the brains removed and either snap frozen in liquid nitrogen or fixed in buffered formalin, embedded in paraffin and the cut sections stained with Hematoxylin-Eosin.
DAOY and U87MG cells (10^6 cells/mouse) were stereotactically injected into the right frontal cortex of nu/nu mice in order to establish a system that recapitulates the brain microenvironment. […] For each time, point n=5 or 6.
(§3) Additional animals were tested for survival. Survival was measured as the time point in which mice required sacrifice, due to a moribund state. […] N for DAOY and U87MG control is 16 mice each and 32 mice for treated DAOY and 24 for treated U87MG.

[5] = tested on: M21L αv pos melanoma cells; assay: Survival of nude mice with αv-positive melanoma cells implanted into the brain; type: in vivo; conditions: 10^6 cells into forebrain of nude mice
Description: Mice were sacrificed when becoming cachectic and the presence of tumor was verified by autopsy.

brain capillary cells = assay: Apoptosis of cells grown on ECM (FIG. 8), brain capillary cells; type: cell-based, human; conditions: 20 μg/ml, 24 hours
Method: (§1) Non tissue culture dishes were incubated 1 hour at 37° C. with vitronectin, tenascin, fibronectin or collagen I (10 μg/ml), then washed with PBS. After the wash, 5×10^5 cells /well were plated and incubated for 16 hours at 37° C. The cultures were then washed and an adhesion buffer containing 20 μg/ml of pentapeptide or control peptide were added and incubated for an additional 2-24 hours. The cultures were then washed twice with adhesion buffer and stained with Crystal violet and the OD 600 determined. The more adherent cells are present, the higher the OD. Data represent adherent cells after 8-hour incubation. U87=glioblastoma and DAOY=medulloblastoma.
Test conditions were as in FIG. 7, except that detached cells and adherent cells were combined after trypsinisation. The cells were then washed, suspended in 50 μl PBS and centrifuged in glass cover slides (cytospin). After fixation with 4% paraformaldehyde, the cells were stained for apoptosis using the Boehringer Apoptosis Kit. Results are expressed in a percentage of apoptotic cells versus total number of cells. Experiment was done after 24 hours of incubation with the peptides.

U87MG cells [6] = assay: Orthotopic brain tumor model, U87MG cells injected intracerebrally in nu/nu mice
Method: as §2
DAOY and U87MG cells (10^6 cells/mouse) were stereotactically injected into the right frontal cortex of nu/nu mice in order to establish a system that recapitulates the brain microenvironment.
as §3
Tumors were removed after 2 weeks of treatment, fixed in buffered formalin, embedded in paraffin and 5 μm sections obtained.

[7] = tested on: DAOY medulloblastoma cells; assay: Tumor cell adhesion to ECM proteins (FIG. 7), DAOY; type: cell-based, human; conditions: DAOY on vitronectin and tenascin, 20 μg/ml, 8-hour incubation
Method: as §1

CC(C)[C@H]1C(=O)N[C@@H](CCCN=C(N)N)C(=O)NCC(=O)N[C@@H](CC(=O)O)C(=O)N[C@H](Cc2ccccc2)C(=O)N1C [EMD 121974, cyclo(Arg-Gly-Asp-D-Phe-[N-Me]-Val)]
migration on vitronectin (U87MG cells [1]): significantly inhibited | adhesion to vitronectin (U87MG cells [2]): Significant inhibition | average size of subcutaneous tumors (DAOY cells [3]; DAOY injected into brain and subcutis, treatment from day 7, week 4 (FIG. 5)): 18 mm^3 | time to sacrifice necessitated by progressive growth of subcutaneous tumors (DAOY cells [3]; DAOY injected intracranially and subcutaneously): 10 weeks | inhibition of subcutaneous tumor growth (DAOY cells [3]; DAOY s.c. only, 100 μg/mouse daily i.p. from day 7, after 6 weeks): no inhibition of tumor growth | Tumor size (mm) Subcutis (DAOY cells [3]; DAOY s.c., 100 μg/mouse daily i.p.): 17 ± 0.84 mm | Mouse weight (gr) (DAOY cells [4]; 100 μg/mouse daily i.p.): 21 ± 0.89 gr | mean time to the onset of neurologic symptoms (DAOY cells [4]; 100 μg/mouse daily i.p.): no evidence of neurological symptoms at any time | mouse weight (DAOY cells [4]; 100 μg/mouse daily i.p., baseline 21 g): 21 g | survival (time point at which mice required sacrifice, moribund state) (DAOY cells [4]; i.p. 100 μg/mouse/day from day 7): ≥ 24 weeks | Tumor size (mm) Brain (DAOY cells [4]; listed as active peptide): absence or microscopic residual disease | Tumor size (mm) Brain (DAOY cells [4]; listed as αv-antagonist): no tumor or only scant residual tumor cells | size of residual tumor foci (DAOY cells [4]; treated group): smaller than 1 mm^3 | Survival ([5]; 100 μg/mouse/day from day 3): 36.5 ± 2.9 days | Survival ([5]; 100 μg/mouse/day from day 3, listed as active pentapeptide): 36 days | cell survival / apoptotic cells (brain capillary cells; brain capillary cells grown on collagen I or fibronectin): did not alter the survival | cell survival / apoptotic cells (brain capillary cells; brain capillary cells grown on vitronectin or tenascin): increased number of dead cells | Mouse weight (gr) (U87MG cells [6]; U87MG, 100 μg/mouse daily i.p.): 20 ± 0.71 gr | mean time to the onset of neurologic symptoms (U87MG cells [6]; U87MG, 100 μg/mouse daily i.p.): no evidence of neurological symptoms at any time | mouse weight (U87MG cells [6]; U87MG, 100 μg/mouse daily i.p., baseline 21 g): 21 g | survival (time point at which mice required sacrifice, moribund state) (U87MG cells [6]; U87MG, i.p. 100 μg/mouse/day from day 3): ≥ 15 weeks | Tumor size (mm) Brain (U87MG cells [6]; U87MG, nu/nu mice, 100 μg/mouse daily i.p. from day 3, 4 weeks total tumor growth, listed as αv-antagonist): no tumor or only scant residual tumor cells | size of residual tumor foci (U87MG cells [6]; U87MG, treated group): smaller than 1 mm^3 | CD31 positive vessels in tumor sections (immunohistochemistry) (U87MG cells [6]; U87 brain tumors, 100 μg/mouse/day from day 7, 2 weeks of treatment, p<0.005): very few such vessels | apoptotic (dead) cells in tumor sections (U87MG cells [6]; U87 brain tumors, 100 μg/mouse/day from day 7, 2 weeks of treatment, p<0.02): significantly more dead cells | adhesion to ECM (adherent cells, OD 600) [7]: detached from vitronectin and tenascin
